Assay type in all cases: cell-based, Human
Series [1] has as its system Washed platelets. Description: Cellular cytotoxicity by release of lactate dehydrogenase (LDH). Particulars: Supplementary Fig. 1. The protocol: (§1) Human platelet purification. The blood sample was obtained from voluntary donors (10 days without antiplatelet medication) who agreed to participate after signing informed consent (Scientific Ethics Committee of the University of Talca N° 04–2022). Briefly, blood anticoagulated with acid-citrate-dextrose (ACD) was obtained in a 4:1 v/v ratio. The sample was centrifuged for 12 min at 250 g to obtain platelet-rich plasma (PRP). Subsequently, the PRP was centrifuged for 8 min at 900 g to obtain the platelet pellet. The plasma supernatant was removed, and the platelets were resuspended in Tyrodes buffer without calcium plus ACD in a ratio of 5:1 v/v. The platelets were centrifuged once more for 8 min at 900 g and the pellet was resuspended in Tyrodes buffer without calcium. Finally, the platelets were counted (Mindray BC-3000 Plus hematology counter, Japan), adjusted to the desired concentration, and used within 3 h.
Cellular cytotoxicity by the release of lactate dehydrogenase (LDH). Washed platelets (200-250 × 10^6 platelets/mL) were incubated with the compounds under study or vehicle for 15 min at 37 °C. Then, the platelets were centrifuged at 900 g for 8 min to collect the supernatant. […] The absorbance was analyzed at 490 nm (Microplate Reader Thermo Scientific Multiskan Go, Finland).

The subject of series [2] is platelet-rich plasma. Description: Platelet aggregation in platelet-rich plasma. Particulars: collagen 2 μg/mL; PRP. The protocol: (§2) Platelet aggregation in platelet-rich plasma. The blood sample was obtained from voluntary donors (10 days without antiplatelet medication) who agreed to participate after signing informed consent (Scientific Ethics Committee of the University of Talca N° 04–2022). Venous blood was collected by phlebotomy into 3.2% sodium citrate tubes. The tubes were centrifuged at 250 g for 12 min to obtain PRP. After reserving the PRP, the tubes were centrifuged again at 900 g for 10 min to obtain platelet-poor plasma (PPP). For the aggregation reaction, PRP was adjusted to 200-250 × 10^6 platelets/mL with PPP [[63], [64], [65]]. Platelet counting was performed in a counter (Mindray BC-3000 Plus hematology counter, Japan). The samples were preincubated with the compounds under study for 5 min at 37 °C in the aggregometer (Agg RAM- Helena Biosciences). Aggregation was initiated with collagen 2 μg/mL and the reaction was evaluated for 5 min at 37 °C in shaking at 1000 rpm.

Series [3] relates to platelet-rich plasma. The experiment in a line: Platelet activation markers in PRP (flow cytometry). As to conditions: collagen 2 μg/mL. The protocol:
as §2
Platelet activation markers. […] Aliquots of the reaction were then collected and labeled separately with human antibodies (BD Biosciences, San José, CA, USA) for P-selectin, CD63, activated GPIIb/IIIa (PAC-1), and fibrinogen to assess the levels of each marker on the platelet membrane. The sample was acquired using the BD Facs Lyric flow cytometer (BD Biosciences, USA). […]

Series [4] concerns Washed platelets. Description: Mitochondrial membrane potential (TMRM). As to conditions: compounds 1, 5 and 10 μM, 20 min. The method, then:
as §1
Mitochondrial membrane potential (ΔΨm). Washed platelets (50 × 10^6 platelets/mL) were labeled with a 100 nM tetramethylrhodamine methyl ester (TMRM) probe and incubated with compounds (1, 5 and 10 μM) for 20 min at 37 °C. The sample was acquired in the BD Facs Lyric flow cytometer (BD Biosciences, USA). Representative dot plots are available in Supplementary Figs. 12, 24, and 25. Carbonyl cyanide 4-(trifluoromethoxy) phenylhydrazone (FCCP) 1 μM was used as a control for decreasing the mitochondrial membrane potential.

Series [5] concerns Washed platelets. Description: Intraplatelet (cytosolic) ROS levels (DHE). As to conditions: compounds 1, 5 and 10 μM, 10 min. The protocol: as §1
Intraplatelet ROS levels. Washed platelets (50 × 10^6 platelets/mL) were labeled with the dihydroethidium (DHE) probe 10 μM and incubated for 20 min at 37 °C protected from light. After, compounds (1, 5, and 10 μM) were added to the platelets and incubated for 10 min at 37 °C. The sample was acquired in the BD Facs Lyric flow cytometer (BD Biosciences, USA). Representative dot plots are available in Supplementary Figs. 18 and 27. As a positive control for ROS, antimycin A 20 μM was used.

Series [6] deals with platelets. The experiment in a line: Oxygen consumption and extracellular acidification rate (Seahorse XFe24). The method, then:
as §1
Oxygen consumption and extracellular acidification rate. Oxygen consumption rate (OCR) and extracellular acidification rate (ECAR) were measured with a Seahorse XFe24 extracellular flux analyzer (Agilent, Santa Clara, CA, USA). Briefly, 100 μL of platelets washed in modified Tyrode-HEPES buffer were deposited (20–25 × 10^6 cells/well) and then centrifuged at 300 g for 10 min. Platelets were incubated with NP4 10 μM for 5 min, and then Tyrode's-HEPES buffer was removed and Seahorse medium (8.3 g/L DMEM, 1.85 g/L NaCl, 5 mM glucose, 1 mM pyruvate, 2 mM glutamine, 5 mM HEPES, pH 7.4) was added to a final volume of 600 μL [70]. OCR was measured before and after the sequential addition of 3 μg/mL collagen, 2.5 μM oligomycin, 1.4 μM FCCP, and 2 μM/2 μM antimycin A/rotenone. Non-mitochondrial OCR was subtracted from all measurements. Respiratory parameters obtained with Mito Stress Test (Supplementary Table 1) were calculated as follows: Baseline (baseline OCR), collagen (OCR after collagen addition), activation (collagen-basal), ATP-independent or proton leak (OCR resistant to oligomycin addition), ATP-linked respiration (basal-proton leak), maximum (OCR obtained after addition of FCCP), and spare (maximal-basal), coupling efficiency (OCR Basal – OCR ATP-indep)/OCR Basal). Respiratory parameters were calculated according to Refs. [66, 70, 73].

`Cc1c(C)c(O)c2c(c1O)C(=O)C(CCCC[P+](c1ccccc1)(c1ccccc1)c1ccccc1)=CC2(C)C.[Br-]` [NP4, (4-(5,8-dihydroxy-4,4,6,7-tetramethyl-1-oxo-1,4-dihydronaphthalen-2-yl)butyl)triphenyl phosphonium bromide]: in series [1], the “Safe concentrations (LDH release)” value was “below 10 μM”. For the same molecule, the “Platelet aggregation in platelet-rich plasma” value in series [2] is reported as “significant decrease”. In addition, in series [3], the “Bound fibrinogen in platelet-rich plasma” value is on record as “significant decrease” and the “P-selectin exposure in platelet-rich plasma” value is “significant decrease”. In addition, the “Mitochondrial membrane potential (ΔΨm)” value in series [4] was “significantly decrease”. The “Cytosolic total ROS levels” value in series [5] is given as “neither NP4 nor NH4 significantly affected”. In addition, in series [6] (10 µM), the “ATP-dep (OCRBasal – OCRATP-indep)” value is recorded as 0,2 ± 0,22, the “Activation (OCRCollagen – OCRBasal)” value is 0,15 ± 0,14, the “Coupling efficiency ((OCRBasal – OCRATP-indep)/OCRBasal)” value was 0,095 ± 0,075 and the “Spare (OCRMaximum – OCRBasal)” value is 1,03 ± 0,29. The “Basal (OCR/10^6 platelets)” value in series [6] (10 µM, Seahorse Mito Stress Test) was 1,33 ± 0,69 OCR/10^6 platelets. In series [6] (10 µM, after 1.4 μM FCCP), the “Maximum (OCR/10^6 platelets)” value is recorded as 2,28 ± 0,45 OCR/10^6 platelets. For the same molecule, the “Collagen (OCR/10^6 platelets)” value in series [6] (10 µM, after 3 μg/mL collagen) is reported as 1,29 ± 0,48 OCR/10^6 platelets. The “Non-mito (OCR/10^6 platelets)” value in series [6] (10 µM, after antimycin A/rotenone) is 0,04 ± 0,08 OCR/10^6 platelets. Moreover, the “ATP-indep (OCR/10^6 platelets)” value in series [6] (10 µM, proton leak, after 2.5 μM oligomycin) is recorded as 1,69 ± 0,47 OCR/10^6 platelets. Moreover, the “Basal extracellular acidification of the media” value in series [6] (non-activated platelets, NP4 10 μM, control 87.5 ± 10.6) is 133.9 ± 14.1 mpH/min/10^6 platelets.
